Results: article PMC6356585 (Viruses, 2018)
Structures can show the parent of a compound that is named as a salt. Where two headings read alike, the source gives them in different places. Residues, ends and D or L forms follow the SMILES beside them. *: point of attachment. Cbz = O=C(OCc1ccccc1)*

What was measured:
ZIKV SPH = test: Autophagy compound library screen, ZIKV SPH titer (TCID50) in C6/36 cells; assay type: cell-based, Zika virus; settings: 10 µM compound, MOI 0.1, 96 h, TCID50, ± SEM, three independent trials; for activity at 10 µM: Zika virus, C6/36, read-out: ZIKV SPH Relative Titer in C6/36 Cells
Vero cells = test: Cell viability (CellTiter-Glo) of Vero cells; assay type: cell-based
C6/36 cells = assay type: cell-based, Ae. albopictus
[1] = 10 µM compound, 96 h, CellTiter-Glo, ± SEM, three independent trials
[2] = 10 µM compound, 40 h, CellTiter-Glo, ± SEM, three independent trials

SMILES | activity at 10 µM (ZIKV SPH) [%] | Vero Viability (Vero cells; 10 µM) | C6/36 Viability (C6/36 cells; [1]) | Vero Viability (Vero cells; [2]) | C6/36 Viability (C6/36 cells; 10 µM) | other results
Oc1ccc(/C=C/c2cc(O)cc(O)c2)cc1 [Resveratrol] | 155 ± 62 | 87.3 ± 2.3% of untreated control | 81 ± 7.5% of untreated control |  |  | 
CO/C1=C\C(C)=C\[C@@H](C)[C@@H](O)[C@@H](C)C/C(C)=C/C=C/[C@H](OC)[C@@H]([C@@H](C)[C@@H](O)[C@H](C)[C@@]2(O)C[C@@H](O)[C@H](C)[C@@H](C(C)C)O2)OC1=O [Bafilomycin A1] | 0 |  | 36 ± 6.1% of untreated control | 55.7 ± 9.5% of untreated control |  | 
CCN(CC)CCCC(C)Nc1ccnc2cc(Cl)ccc12 (stereo not shown) [Chloroquine] | 126 ± 44.8 |  | 81 ± 17.1% of untreated control | 89.7 ± 4.4% of untreated control |  | 
C[C@H]1CC[C@@]2(OC1)O[C@H]1C[C@H]3[C@@H]4CC[C@@H]5C[C@@H](O[C@@H]6O[C@H](CO)[C@H](O)[C@H](O)[C@H]6O[C@@H]6O[C@H](CO)[C@@H](O)[C@H](O)[C@H]6O)CC[C@]5(C)[C@H]4CC[C@]3(C)[C@H]1[C@@H]2C [Timosaponin A-III] | 13 ± 5.2 | 38.7 ± 11.9% of untreated control | 67 ± 3.6% of untreated control |  |  | 
O=c1[nH]c2ccccc2n1C1CCN(CCCC(c2ccc(F)cc2)c2ccc(F)cc2)CC1 [Pimozide] | 109 ± 22 | 90.0 ± 5.7% of untreated control | 49 ± 3.6% of untreated control |  |  | 
C[C@H]1CCC/C=C/[C@@H]2C[C@H](O)C[C@H]2[C@H](O)/C=C/C(=O)O1 [Brefeldin A] | 124 ± 25 |  |  |  |  | ZIKV SPH Relative Titer in C6/36 Cells (ZIKV SPH): did not alter viral titers; Vero Viability (Vero cells; 10 µM compound, 40 h, CellTiter-Glo, ± SEM, three independent trials, 10 µM): 17.0 ± 2.1% of untreated control; Vero Viability (Vero cells; 10 µM compound, 40 h, CellTiter-Glo, ± SEM, three independent trials, listed as brefeldin A, 10 µM): toxic; C6/36 Viability (C6/36 cells; 10 µM compound, 96 h, CellTiter-Glo, ± SEM, three independent trials, 10 µM): 91 ± 8.4% of untreated control; C6/36 Viability (C6/36 cells; 10 µM compound, 96 h, CellTiter-Glo, ± SEM, three independent trials, listed as brefeldin A, 10 µM): did not alter viral titers or cell viability
COc1cc(/C=C/C(=O)CC(=O)/C=C/c2ccc(O)c(OC)c2)ccc1O [Curcumin] | 0.3 ± 0.2 | 75.3 ± 11.3% of untreated control | 3 ± 0.7% of untreated control |  |  | 
COCCOC(=O)C1=C(C)NC(C)=C(C(=O)OC(C)C)C1c1cccc([N+](=O)[O-])c1 (stereo not shown) [Nimodipine] | 26.9 ± 13.6 | 92.0 ± 1.5% of untreated control | 41 ± 8.4% of untreated control |  |  | 
C[C@@H]1C[C@@H]([C@H](O)CC2CC(=O)NC(=O)C2)C(=O)[C@@H](C)C1 [Cycloheximide] | 0 |  | 24 ± 3.5% of untreated control | 37.3 ± 6.2% of untreated control |  | 
O=C(/C=C/c1cccnc1)NCCCCC1CCN(C(=O)c2ccccc2)CC1 [FK-866] | 92.7 ± 32.4 | 32.7 ± 2.7% of untreated control |  |  | 48 ± 5.5% of untreated control | 
CC/C(=C(\c1ccccc1)c1ccc(OCCN(C)C)cc1)c1ccccc1 [Tamoxifen citrate] | 8.2 ± 7.3 | 60.7 ± 18.4% of untreated control | 32 ± 11.9% of untreated control |  |  | 
COc1ccc(CCN(C)CCCC(C#N)(c2ccc(OC)c(OC)c2)C(C)C)cc1OC (stereo not shown) [Verapamil·HCl] | 89 ± 40.8 |  | 71 ± 2.9% of untreated control | 87.7 ± 0.9% of untreated control |  | 
C[C@H]1O[C@@H](n2cnc3c(N)ncnc32)C[C@@H]1O [2′,5′-Dideoxyadenosine] | 317 ± 162 |  | 118 ± 15% of untreated control | 95.0 ± 1.5% of untreated control |  | 
C1COC(NC(C2CC2)C2CC2)=N1 [Rilmenidine] | 161 ± 58.1 | 97.0 ± 2% of untreated control |  |  | 79 ± 8.3% of untreated control | 
COc1cc(CNC(=O)CCCC/C=C/C(C)C)ccc1O [Capsaicin] | 48.1 ± 12 |  | 66 ± 7.2% of untreated control | 91.7 ± 2.4% of untreated control |  | 
Cn1c(=O)c2c(ncn2C)n(C)c1=O [Caffeine] | 138 ± 37.7 |  | 83 ± 4.6% of untreated control | 104.7 ± 8.6% of untreated control |  | 
Clc1cccc(Cl)c1N=C1NCCN1 [Clonidine·HCl] | 95.9 ± 53.4 | 97.7 ± 2.6% of untreated control |  |  | 69 ± 5.4% of untreated control | 
Cc1ccc(S(=O)(=O)NC(=O)NN2CCCCCC2)cc1 [Tolazamide] | 120 ± 33.7 | 99.0 ± 1.5% of untreated control | 113 ± 7.3% of untreated control |  |  | 
c1ccc2c(-c3ccncc3)c[nH]c2c1 [Rockout] | 96.2 ± 44.2 | 87.7 ± 3.8% of untreated control |  |  | 76 ± 5.2% of untreated control | 
CC1=CC(=O)c2c(O)cccc2C1=O [Plumbagin] | 21.4 ± 17.5 | 2.0 ± 0% of untreated control |  |  | 49 ± 1.5% of untreated control | 

SMILES | activity at 10 µM (ZIKV SPH) [%] | Vero Viability (Vero cells; 10 µM) | C6/36 Viability (C6/36 cells; [1]) | Vero Viability (Vero cells; [2]) | C6/36 Viability (C6/36 cells; 10 µM) | other results
Cc1ccc(NC(=O)c2ccc(CN3CCN(C)CC3)cc2)cc1Nc1nccc(-c2cccnc2)n1 [Imatinib mesylate] | 5.3 ± 2.2 |  | 19 ± 5.4% of untreated control |  |  | 
Oc1c2ccccc2c2c3c(cccc13)N=N2 [SP600125] | 50.3 ± 19.8 | 66.0 ± 2.1% of untreated control |  |  | 132 ± 9% of untreated control | 
CCOC(=O)C1=C(C)NC(C)=C(C(=O)OC)C1c1cccc([N+](=O)[O-])c1 (stereo not shown) [Nitrendipine] | 220 ± 44.4 |  | 62 ± 10.5% of untreated control | 88.7 ± 1.9% of untreated control |  | 
C/C=C(/C)C(=O)O[C@H]1C(C)=C2[C@H]([C@@H]1OC(=O)CCCCCCC)[C@@](C)(OC(C)=O)C[C@H](OC(=O)CCC)[C@@]1(O)[C@H]2OC(=O)[C@@]1(C)O [Thapsigargin] | 0 | 38.0 ± 10.5% of untreated control |  |  | 23 ± 3.9% of untreated control | 
CC(=O)c1c(O)c(C)c(O)c(Cc2c(O)c3c(c(C(=O)/C=C/c4ccccc4)c2O)OC(C)(C)C=C3)c1O [Rottlerin] | 30.3 ± 16.9 |  | 40 ± 8.4% of untreated control | 80.7 ± 8.5% of untreated control |  | 
N[C@H]1C(O)O[C@H](CO)[C@@H](O)[C@@H]1O (stereo partly shown) [Glucosamine HCl] | 242 ± 45.8 | 99.3 ± 1.9% of untreated control | 88 ± 5.2% of untreated control |  |  | 
CC(C)Cn1cnc2c(N)nc3ccccc3c21 [Imiquimod] | 72.5 ± 18.4 |  | 37 ± 8.1% of untreated control | 91.3 ± 1.2% of untreated control |  | 
Oc1ccc(-c2nc(-c3ccncc3)c(-c3ccc(F)cc3)[nH]2)cc1 [SB202190] | 25.9 ± 7.4 | 74.3 ± 5.2% of untreated control |  |  | 44 ± 7.9% of untreated control | 
CN(C)C(=N)N=C(N)N [Metformin·HCl] |  | 92.3 ± 4.2% of untreated control | 64 ± 10.3% of untreated control |  |  | 
CCN(CC)CCNC(=O)c1c(C)[nH]c(/C=C2\C(=O)Nc3ccc(Cl)cc32)c1C [SU11652] | 0 | 1.0 ± 0% of untreated control |  |  | 1 ± 0% of untreated control | 
CC(C)C[C@@H](C=O)NC(=O)[C@H](CC(C)C)NC(=O)[C@H](CC(C)C)NC(=O)OCc1ccccc1 [MG132] (Cbz-Leu-Leu-Leu-aldehyde) | 9.5 ± 7.1 | 10.7 ± 2.8% of untreated control | 31 ± 5.7% of untreated control |  |  | 
NCCCCNCCCN [Spermidine] | 90.2 ± 57.4 | 78.0 ± 17% of untreated control |  |  | 70 ± 3% of untreated control | 
O=CC[C@@H](O)[C@H](O)[C@H](O)CO [2-Deoxyglucose] | 109 ± 61.2 | 98.7 ± 0.9% of untreated control | 73 ± 1% of untreated control |  |  | 
O=c1cc(N2CCOCC2)oc2c(-c3ccccc3)cccc12 [LY294002] | 548 ± 221 |  | 97 ± 17.2% of untreated control | 56.0 ± 6% of untreated control |  | 
COc1ccc(C2CNC(=O)C2)cc1OC1CCCC1 (stereo not shown) [Rolipram] | 215 ± 74.8 | 91.0 ± 3.2% of untreated control |  |  | 127 ± 12.1% of untreated control | 
O=C(Nc1ccc([N+](=O)[O-])cc1Cl)c1cc(Cl)ccc1O [Niclosamide] | 0.1 | 29.7 ± 3.8% of untreated control | 2 ± 0.3% of untreated control |  |  | 
CCCC(CCC)C(=O)O [Sodium Valproate] | 111 ± 20.7 | 92.7 ± 1.2% of untreated control | 111 ± 6.2% of untreated control |  |  | 
C=C(C)[C@H]1Cc2c(ccc3c2O[C@@H]2COc4cc(OC)c(OC)cc4[C@@H]2C3=O)O1 [Rotenone] | 0.1 ± 0.1 |  | 17 ± 5.8% of untreated control | 61.3 ± 7.7% of untreated control |  | 
Cn1cc(C2=C(c3ccc(Cl)cc3Cl)C(=O)NC2=O)c2ccccc21 [SB-216763] | 54 ± 21.7 | 80.0 ± 9% of untreated control | 63 ± 3.6% of untreated control |  |  | 
Oc1cccc(-c2nc(N3CCOCC3)c3oc4ncccc4c3n2)c1 [PI-103] | 46.2 ± 13.3 | 43.7 ± 6.4% of untreated control |  |  | 39 ± 8.9% of untreated control | 
